Earlier results as cited in US10870689B2, “ApoM-Fc fusion proteins, complexes thereof with sphingosine 1-phosphate (S1P), and methods for treating vascular and non-vascular diseases” (Children's Medical Center Corporation, priority 2016, dated 2020).

Molecular target: T1, S1P1 (Homo sapiens, UniProt P21453)
T1 construct: expressed in transfected cells
Conditions: Hofmann et al. 2009; Tsukada et al. 2007

T1 sequence (P21453 whole entry, species assumed): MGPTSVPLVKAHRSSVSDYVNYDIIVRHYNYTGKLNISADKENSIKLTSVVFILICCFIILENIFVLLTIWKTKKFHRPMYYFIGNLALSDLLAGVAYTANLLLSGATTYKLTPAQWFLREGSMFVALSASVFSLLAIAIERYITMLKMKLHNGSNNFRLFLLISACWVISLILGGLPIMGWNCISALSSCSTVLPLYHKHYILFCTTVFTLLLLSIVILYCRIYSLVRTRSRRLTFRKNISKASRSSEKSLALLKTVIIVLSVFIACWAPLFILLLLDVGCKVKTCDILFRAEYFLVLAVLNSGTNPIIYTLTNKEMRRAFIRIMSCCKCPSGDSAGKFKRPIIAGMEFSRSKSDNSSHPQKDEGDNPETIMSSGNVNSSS

For FC(F)(F)c1cccc(-c2noc(-c3cc(-c4ccccc4)c(C(F)(F)F)s3)n2)c1 [SEW2871], the “effect on cardiac rhythm” value is given as “induced abnormal cardiac rhythm”.
